Experimental data from patent US12458578B2, “Composition for inhibiting plaque formation” (SUNSTAR SUISSE SA, priority 2020, dated 2025).

Tested on: Fusobacterium (Fusobacterium nucleatum subsp. nucleatum ATCC23726 and ATCC25586)
Assay: Study of sterilization effect of quaternary ammonium salt sterilizer liquids (in water) on Fusobacterium, viable count after 30 seconds
Format: cell-based
Conditions: for sterilization effect on Fusobacterium (number of viable bacteria): component used singly as sterilizer liquid in water, 0.01-0.10%, 30 seconds contact
Procedure: The alkylpyridinium chlorides and benzyl alkyl dimethyl ammonium chlorides shown below were dissolved in water such that each component had each concentration (0.01%, 0.02%, 0.03%, 0.04%, 0.05%, 0.07%, or 0.10%), and the resulting products were used as sterilizer liquids. In the sterilizer liquids, the components were used singly or in combination. The concentration (%) of an alkylpyridinium chloride in the sterilizer liquids is expressed as w/v %; however, since the solvent is water, and the concentrations are relatively low, the value is almost the same as the value expressed as mass % (w/w %) and can be approximated. • Octylpyridinium chloride (OPC): R=(CH2)7CH3 in the following formula • Dodecylpyridnium chloride (DPC): R=(CH2)11CH3 in the following formula • Cetylpyridinium chloride (CPC): R=(CH2)15CH3 in the following formula
For test bacteria, the following two subspecies of Fusobacterium were used. • Bacteria 1: Fusobacterium nucleatum subsp. nucleatum ATCC23726 • Bacteria 2: Fusobacterium nucleatum subsp. nucleatum ATCC25586
The test bacteria were individually inoculated into 10 ml of GAM bouillon medium (Nissui Pharmaceutical Co., Ltd.) and incubated anaerobically at 37° C. for 2 days. The resulting culture media were used as test bacteria liquids.
The sterilizer liquids (200 μl) at different concentrations were each mixed with the test bacteria liquids (200 μl). Thirty seconds after the mixing, 100 μl of the mixture was collected, and 900 μl of drug inactivation PBS in which soy lecithin and Tween 80 were added to a final concentration of 0.07% and 0.5%, respectively, to phosphate-buffered saline (PBS) was added (the mixture was diluted 10-fold) to inactivate the sterilization properties of the sterilizers. Each mixture was serially diluted 10^1- to 10^7-fold with the drug inactivation PBS (serially diluted mixers).
100 μl each of the prepared serially diluted mixers was smeared on sheep blood agar media for CDC anaerobes (Becton, Dickinson and Company), cultured anaerobically at 37° C. for 3 days, and the number of viable bacteria was counted.
FIGS. 1, 2, and 3 show the results. In the graphs of these figures, the vertical axis represents log (the number of viable bacteria) CFU/ml, with the detection limit of this value being 2.
The concentrations of CPC, DPC, OPC, BKC12, BKC14, and BKC16 in these figures and the following figures represent the concentrations of these components prepared as sterilizer liquids.

SMILES: CCCCCCCCCCCC[N+](C)(C)Cc1ccccc1.[Cl-] [BKC12, Benzyl dodecyl dimethyl ammonium chloride]
- sterilization effect on Fusobacterium (number of viable bacteria): showed a sterilization effect on Fusobacterium even at a relatively low concentration

SMILES: CCCCCCCCCCCCCC[N+](C)(C)Cc1ccccc1.[Cl-] [BKC14, Benzyl tetradecyl dimethyl ammonium chloride]
- sterilization effect on Fusobacterium (number of viable bacteria): showed a sterilization effect on Fusobacterium even at a relatively low concentration

SMILES: CCCCCCCCCCCCCCCC[N+](C)(C)Cc1ccccc1.[Cl-] [BKC16, Benzyl hexadecyl dimethyl ammonium chloride]
- sterilization effect on Fusobacterium (number of viable bacteria): did not show a sterilization effect on Fusobacterium

SMILES: CCCCCCCCCCCCCCCC[n+]1ccccc1.[Cl-] [CPC, Cetylpyridinium chloride]
- enhancement of the sterilization effect of BKC12 on Fusobacterium (CPC combined with BKC12 in the sterilizer liquid): enhanced the sterilization effect of BKC14 or BKC12 on Fusobacterium
- enhancement of the sterilization effect of BKC14 on Fusobacterium (CPC combined with BKC14 in the sterilizer liquid): enhanced the sterilization effect of BKC14 or BKC12 on Fusobacterium
- enhancement of the sterilization effect of DPC on Fusobacterium (CPC combined with DPC in the sterilizer liquid): enhanced the sterilization effect of DPC on Fusobacterium
- enhancement of the sterilization effect of a quaternary ammonium salt having a C10 to C14 alkyl group on Fusobacterium (cetylpyridinium chloride combined with the quaternary ammonium salt): exhibits an effect of enhancing the sterilization effect of a quaternary ammonium salt having a C10 to C14 alkyl group on Fusobacterium
- sterilization effect on Fusobacterium (number of viable bacteria): did not show a sterilization effect on Fusobacterium
- sterilization effect on Fusobacterium (number of viable bacteria) (listed as Cetylpyridinium chloride): an efficient sterilization effect on Fusobacterium was not observed
- sterilization effect on Fusobacterium (number of viable bacteria) (listed as cetylpyridinium chloride): does not produce an efficient sterilization effect on Fusobacterium

SMILES: CCCCCCCCCCCC[n+]1ccccc1.[Cl-] [DPC, Dodecylpyridnium chloride]
- sterilization effect on Fusobacterium (number of viable bacteria): showed a sterilization effect on Fusobacterium even at a relatively low concentration

SMILES: CCCCCCCC[n+]1ccccc1.[Cl-] [OPC, Octylpyridinium chloride]
- sterilization effect on Fusobacterium (number of viable bacteria): did not show a sterilization effect on Fusobacterium
